Measurements as given in US11034672B1, “Tyrosine kinase inhibitor compositions, methods of making and methods of use” (Black Diamond Therapeutics, Inc., priority 2018, dated 2021).

Columns and labels:
Assay type in all cases: cell-based
[1] = target: T1, EGFR WT (Homo sapiens, UniProt P00533); assay: Activity for inhibiting EGFR (Table A), EGFR WT; conditions: read-out: EGFR WT, potency code (IC50)
[2] = target: T2, EGFR V3 (Homo sapiens, UniProt P00533, DELINS30-297G); assay: Activity for inhibiting EGFR (Table A), EGFR V3 (EGFR-Viii); conditions: read-out: EGFR V3, potency code (IC50)
T2 construct: expressed in transfected cells; host or cells: BaF3 (murine pro-B), retroviral pMXs-IRES-Blasticidin

[3] = target: T3, HER2 WT (Homo sapiens, UniProt P04626); assay: Activity for inhibiting HER2 (Table B), HER2 WT
[4] = target: T4, HER2 S310F (Homo sapiens, UniProt P04626, S310F); assay: Activity for inhibiting HER2 (Table B), HER2 S310F; conditions: read-out: HER2 S310F, potency code (IC50)
T4 construct: expressed in transfected cells; host or cells: BaF3 (murine pro-B)
Description: (§1) EC50 values were determined with the same application.

[5] = target: T1, EGFR WT; assay: BaF3 cell proliferation assay, EGFR WT (Table A); conditions: potency code, 3 days, CellTiterGlo, read-out: EGFR WT (Activity for Inhibiting EGFR)
In short: (§2)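 Mouse BaF3 cells were retrovirally transduced (pMXs-IRES-Blasticidin, VSV-G pseudotyped virus from HEK 293T) with the human EGFR or HER2 variant, selected in 10 μg/ml Blasticidin for one week, then made IL-3 independent. EC50 values come from proliferation of these lines.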

[6] = target: T2, EGFR V3; assay: BaF3 cell proliferation assay, EGFR V3 (Table A); conditions: potency code, 3 days, CellTiterGlo, read-out: EGFR V3 (Activity for Inhibiting EGFR)
In short: as §2

[7] = target: T3, HER2 WT; assay: BaF3 cell proliferation assay, HER2 WT (Table B); conditions: potency code, 3 days, CellTiterGlo, read-out: HER2 WT (Activity for Inhibiting HER2)
[8] = target: T4, HER2 S310F; assay: BaF3 cell proliferation assay, HER2 S310F (Table B); conditions: potency code, 3 days, CellTiterGlo, read-out: HER2 S310F (Activity for Inhibiting HER2)
[9] = target: T5, HER2 YVMA (Homo sapiens, UniProt P04626, INS775YVMA); assay: Activity for inhibiting HER2 (Table B), HER2 YVMA; conditions: read-out: HER2 YVMA, potency code (IC50)
T5 construct: expressed in transfected cells; host or cells: BaF3 (murine pro-B)
Description: as §1

[10] = target: T5, HER2 YVMA; assay: BaF3 cell proliferation assay, HER2 YVMA (Table B); conditions: potency code, 3 days, CellTiterGlo, read-out: HER2 YVMA (Activity for Inhibiting HER2)
[11] = Table B, read-out: HER2 WT, potency code (IC50)
[12] = text lists of compounds, read-out: IC50 value for inhibiting wild-type HER2

T2 sequence (P00533 with tags, fused parts or gaps DELINS30-297G): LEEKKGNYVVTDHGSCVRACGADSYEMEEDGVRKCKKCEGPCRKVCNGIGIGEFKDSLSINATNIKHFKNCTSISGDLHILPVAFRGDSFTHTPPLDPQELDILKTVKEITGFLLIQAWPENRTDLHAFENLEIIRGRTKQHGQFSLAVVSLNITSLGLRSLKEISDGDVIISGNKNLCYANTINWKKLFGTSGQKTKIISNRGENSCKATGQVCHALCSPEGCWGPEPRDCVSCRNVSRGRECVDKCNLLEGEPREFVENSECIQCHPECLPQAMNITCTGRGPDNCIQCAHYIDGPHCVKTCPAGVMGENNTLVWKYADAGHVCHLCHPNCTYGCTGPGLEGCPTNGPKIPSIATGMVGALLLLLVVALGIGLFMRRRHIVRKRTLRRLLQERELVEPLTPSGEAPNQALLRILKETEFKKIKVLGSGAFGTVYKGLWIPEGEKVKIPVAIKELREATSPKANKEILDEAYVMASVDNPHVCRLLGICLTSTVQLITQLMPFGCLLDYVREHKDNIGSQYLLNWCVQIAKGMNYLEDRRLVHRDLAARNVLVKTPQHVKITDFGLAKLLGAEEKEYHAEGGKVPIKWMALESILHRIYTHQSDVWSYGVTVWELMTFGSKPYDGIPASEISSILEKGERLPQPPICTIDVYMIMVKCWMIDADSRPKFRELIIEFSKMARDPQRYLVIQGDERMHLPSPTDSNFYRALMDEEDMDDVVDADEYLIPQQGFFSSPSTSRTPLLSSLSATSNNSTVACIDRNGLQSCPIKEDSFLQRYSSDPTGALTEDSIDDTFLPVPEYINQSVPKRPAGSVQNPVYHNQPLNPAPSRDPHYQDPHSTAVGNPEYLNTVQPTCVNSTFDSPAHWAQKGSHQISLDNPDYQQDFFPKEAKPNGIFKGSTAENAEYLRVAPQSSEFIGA
T1 sequence (P00533 25-1210 N540K): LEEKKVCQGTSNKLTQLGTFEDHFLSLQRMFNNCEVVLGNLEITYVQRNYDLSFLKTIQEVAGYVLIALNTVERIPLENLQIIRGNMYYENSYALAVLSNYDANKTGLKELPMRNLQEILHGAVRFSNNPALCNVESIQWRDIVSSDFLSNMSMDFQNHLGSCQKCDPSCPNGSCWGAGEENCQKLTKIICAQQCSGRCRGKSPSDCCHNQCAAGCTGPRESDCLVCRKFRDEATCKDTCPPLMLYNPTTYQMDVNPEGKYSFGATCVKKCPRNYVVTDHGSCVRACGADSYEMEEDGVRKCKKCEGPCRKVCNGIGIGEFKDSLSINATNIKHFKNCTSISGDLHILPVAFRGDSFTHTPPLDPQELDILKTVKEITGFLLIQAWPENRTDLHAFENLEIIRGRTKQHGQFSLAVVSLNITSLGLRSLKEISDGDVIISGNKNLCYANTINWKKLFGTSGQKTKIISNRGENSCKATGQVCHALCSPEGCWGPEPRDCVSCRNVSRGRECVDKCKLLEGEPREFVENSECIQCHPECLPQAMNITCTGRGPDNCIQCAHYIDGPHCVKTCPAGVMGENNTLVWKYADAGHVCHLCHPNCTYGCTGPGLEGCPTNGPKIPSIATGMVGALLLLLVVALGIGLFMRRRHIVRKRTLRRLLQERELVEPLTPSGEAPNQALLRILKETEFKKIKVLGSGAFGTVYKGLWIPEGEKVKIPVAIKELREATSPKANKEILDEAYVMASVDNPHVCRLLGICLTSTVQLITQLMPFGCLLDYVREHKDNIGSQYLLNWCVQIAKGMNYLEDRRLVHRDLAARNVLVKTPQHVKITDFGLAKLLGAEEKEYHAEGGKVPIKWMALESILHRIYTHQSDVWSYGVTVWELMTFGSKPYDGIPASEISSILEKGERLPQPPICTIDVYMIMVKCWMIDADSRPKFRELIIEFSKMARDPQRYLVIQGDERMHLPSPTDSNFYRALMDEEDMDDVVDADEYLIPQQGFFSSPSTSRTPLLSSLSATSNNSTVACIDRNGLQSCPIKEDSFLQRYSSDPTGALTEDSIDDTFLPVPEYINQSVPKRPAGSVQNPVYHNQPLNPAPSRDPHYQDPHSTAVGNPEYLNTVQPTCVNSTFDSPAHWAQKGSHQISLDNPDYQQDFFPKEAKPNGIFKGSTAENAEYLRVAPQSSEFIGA
T4 sequence (P04626 23-1255 S310F): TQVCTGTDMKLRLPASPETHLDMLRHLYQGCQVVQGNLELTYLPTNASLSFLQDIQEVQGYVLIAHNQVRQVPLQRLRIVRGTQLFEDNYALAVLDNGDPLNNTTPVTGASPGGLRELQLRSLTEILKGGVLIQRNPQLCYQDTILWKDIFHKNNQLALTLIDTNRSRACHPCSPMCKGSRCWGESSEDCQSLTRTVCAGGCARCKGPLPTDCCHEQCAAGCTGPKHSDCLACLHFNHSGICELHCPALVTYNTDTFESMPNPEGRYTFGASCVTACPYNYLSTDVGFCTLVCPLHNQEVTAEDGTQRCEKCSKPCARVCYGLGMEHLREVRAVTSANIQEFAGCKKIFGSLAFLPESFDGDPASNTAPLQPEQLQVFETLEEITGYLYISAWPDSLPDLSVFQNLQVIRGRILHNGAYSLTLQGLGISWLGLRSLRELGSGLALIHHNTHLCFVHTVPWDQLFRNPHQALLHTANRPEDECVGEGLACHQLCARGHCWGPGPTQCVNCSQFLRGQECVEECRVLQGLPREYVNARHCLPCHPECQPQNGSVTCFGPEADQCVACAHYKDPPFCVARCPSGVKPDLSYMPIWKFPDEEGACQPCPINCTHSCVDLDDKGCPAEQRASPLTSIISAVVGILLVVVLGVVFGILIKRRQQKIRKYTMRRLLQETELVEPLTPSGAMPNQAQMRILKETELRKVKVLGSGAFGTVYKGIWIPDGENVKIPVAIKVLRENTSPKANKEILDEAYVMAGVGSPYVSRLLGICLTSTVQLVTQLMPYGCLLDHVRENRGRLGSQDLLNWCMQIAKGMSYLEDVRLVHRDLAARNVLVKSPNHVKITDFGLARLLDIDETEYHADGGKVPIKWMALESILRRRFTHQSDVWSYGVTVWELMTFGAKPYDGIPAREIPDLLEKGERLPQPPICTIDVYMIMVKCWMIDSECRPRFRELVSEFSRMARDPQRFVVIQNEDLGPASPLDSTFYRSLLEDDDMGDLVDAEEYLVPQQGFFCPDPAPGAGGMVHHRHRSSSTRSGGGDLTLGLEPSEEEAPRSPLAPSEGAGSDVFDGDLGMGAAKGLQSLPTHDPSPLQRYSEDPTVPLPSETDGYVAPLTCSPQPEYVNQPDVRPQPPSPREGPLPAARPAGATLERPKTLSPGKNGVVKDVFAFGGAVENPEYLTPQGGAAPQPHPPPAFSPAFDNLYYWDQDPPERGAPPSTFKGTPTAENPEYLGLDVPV
T5 sequence (P04626 with tags, fused parts or gaps INS775YVMA): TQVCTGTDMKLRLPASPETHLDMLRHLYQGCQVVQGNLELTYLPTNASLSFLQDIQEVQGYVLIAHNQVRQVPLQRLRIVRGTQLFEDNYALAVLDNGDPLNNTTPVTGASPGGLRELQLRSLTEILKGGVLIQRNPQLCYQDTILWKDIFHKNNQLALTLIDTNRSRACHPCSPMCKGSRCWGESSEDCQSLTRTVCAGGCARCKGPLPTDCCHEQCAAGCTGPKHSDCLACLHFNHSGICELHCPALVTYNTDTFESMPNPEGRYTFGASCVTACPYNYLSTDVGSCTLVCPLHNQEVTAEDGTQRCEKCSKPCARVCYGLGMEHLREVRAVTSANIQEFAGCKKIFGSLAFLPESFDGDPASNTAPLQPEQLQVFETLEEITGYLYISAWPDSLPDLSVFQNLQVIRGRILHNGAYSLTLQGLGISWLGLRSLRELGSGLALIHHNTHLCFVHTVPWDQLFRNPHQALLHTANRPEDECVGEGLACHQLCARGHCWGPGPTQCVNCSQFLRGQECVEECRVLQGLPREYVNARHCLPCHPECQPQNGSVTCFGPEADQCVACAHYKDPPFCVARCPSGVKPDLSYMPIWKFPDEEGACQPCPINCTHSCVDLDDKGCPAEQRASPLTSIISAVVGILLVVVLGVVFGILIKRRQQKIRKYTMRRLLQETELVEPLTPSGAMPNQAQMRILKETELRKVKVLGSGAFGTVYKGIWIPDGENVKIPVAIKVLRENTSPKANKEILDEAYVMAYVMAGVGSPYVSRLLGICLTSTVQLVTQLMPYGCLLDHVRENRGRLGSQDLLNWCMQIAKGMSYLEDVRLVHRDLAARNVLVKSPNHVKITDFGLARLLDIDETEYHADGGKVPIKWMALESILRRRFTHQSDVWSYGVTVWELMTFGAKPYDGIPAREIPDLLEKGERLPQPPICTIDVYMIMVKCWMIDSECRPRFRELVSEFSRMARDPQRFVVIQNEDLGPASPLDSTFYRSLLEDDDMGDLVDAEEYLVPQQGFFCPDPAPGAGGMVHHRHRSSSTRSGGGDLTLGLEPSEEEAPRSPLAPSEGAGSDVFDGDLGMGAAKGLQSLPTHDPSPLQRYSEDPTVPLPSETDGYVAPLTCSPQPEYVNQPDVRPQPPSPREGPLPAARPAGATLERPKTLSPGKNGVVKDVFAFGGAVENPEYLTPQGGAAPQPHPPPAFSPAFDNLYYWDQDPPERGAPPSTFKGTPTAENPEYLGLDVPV

Row | Structure (SMILES) | IC50 [1] [nM] | IC50 [2] [nM] | IC50 [3, 11] [nM] | IC50 [4] [nM] | IC50 [5] [nM] | IC50 [6] [nM] | IC50 [7] [nM] | IC50 [8] [nM] | IC50 [3, 12] [nM] | IC50 [9] [nM] | IC50 [10] [nM]
1 | C=CC(=O)Nc1cc2c(Nc3ccc(OCc4cccc(F)c4)c(Cl)c3)ncnc2cc1N(C)CCN(C)C [compound 1] | > 1000 | 100 to 200 | 50 to 100 | 500 to 1000 | > 1000 | 100 to 200 | 50 to 100 | 500 to 1000 |  |  | 
2 | C=CC(=O)Nc1cc2c(Nc3ccc(OCc4cccc(F)c4)c(Cl)c3)ncnc2cc1N(C)CCN1CCOCC1 [compound 2] | > 1000 | 50 to 100 | 100 to 200 | 300 to 500 | > 1000 | 50 to 100 | 100 to 200 | 300 to 500 |  |  | 
3 | C=CC(=O)Nc1cc2c(Nc3ccc(OCc4cccc(F)c4)c(Cl)c3)ncnc2cc1OCCCN1CCOCC1 [compound 3] | 300 to 500 | 30 to 50 | 10 to 20 | 20 to 30 | 300 to 500 | 30 to 50 | 10 to 20 | 20 to 30 | ≤ 20 |  | 
4 | CC#CC(=O)Nc1cc2c(Nc3ccc(OCc4ccccn4)c(Cl)c3)ncnc2cc1N(C)CCN1CCOCC1 [compound 4] | 200 to 300 | 50 to 100 | 20 to 30 | 50 to 100 | 200 to 300 | 50 to 100 | 20 to 30 | 50 to 100 | ≤ 50 |  | 
5 | C=CC(=O)Nc1cc2c(Nc3ccc(OCc4ccccn4)c(Cl)c3)ncnc2cc1N(C)CCN1CCOCC1 [compound 7] | > 1000 | 100 to 200 | 100 to 200 | 200 to 300 | > 1000 | 100 to 200 | 100 to 200 | 200 to 300 |  |  | 
6 | C=CC(=O)Nc1cc2c(Nc3ccc(OCc4ccccn4)cc3)ncnc2cc1OCCn1ccnc1 [compound 9] | 500 to 1000 | 50 to 100 | 10 to 20 | 100 to 200 | 500 to 1000 | 50 to 100 | 10 to 20 | 100 to 200 | ≤ 20 |  | 
7 | C=CC(=O)Nc1cc2c(Nc3ccc(OCc4ccccn4)c(Cl)c3)ncnc2cc1N(C)CCCN1CCOCC1 [compound 12] | 500 to 1000 | 100 to 200 | 50 to 100 | 100 to 200 | 500 to 1000 | 100 to 200 | 50 to 100 | 100 to 200 |  |  | 
8 | C=CC(=O)Nc1cc2c(Nc3ccc(OCc4ccccn4)c(Cl)c3)ncnc2cc1OCC1CCCN1C (centres unmarked) [compound 14] | 300 to 500 | 30 to 50 | 10 to 20 | 50 to 100 | 300 to 500 | 30 to 50 | 10 to 20 | 50 to 100 | ≤ 20 |  | 
9 | C=CC(=O)Nc1cc2c(Nc3ccc(OCc4ccccn4)c(Cl)c3)ncnc2cc1OC1CCNC1 (centres unmarked) [compound 15] | 300 to 500 | 200 to 300 | 10 to 20 | 100 to 200 | 300 to 500 | 200 to 300 | 10 to 20 | 100 to 200 | ≤ 20 |  | 
10 | C=CC(=O)Nc1cc2c(Nc3ccc(OCc4cccc(C(F)(F)F)n4)c(Cl)c3)ncnc2cc1OCCN1CCOCC1 [compound 23] | > 1000 | 100 to 200 | 100 to 200 | 100 to 200 | > 1000 | 100 to 200 | 100 to 200 | 100 to 200 |  |  | 
11 | C=CC(=O)Nc1cc2c(Nc3ccc(Oc4cccc(Cl)c4)cc3)ncnc2cc1OCCN1CCOCC1 [compound 37] | > 1000 | 100 to 200 | 50 to 100 | 50 to 100 | > 1000 | 100 to 200 | 50 to 100 | 50 to 100 |  |  | 
12 | C=CC(=O)Nc1cc2c(Nc3ccc(OCc4ccccn4)c(Cl)c3)ncnc2cc1N1CCN2CCC1C2 (centres unmarked) [compound 43] | > 1000 | 100 to 200 | 50 to 100 | 100 to 200 | > 1000 | 100 to 200 | 50 to 100 | 100 to 200 |  |  | 
13 | C=CC(=O)Nc1cc2c(Nc3ccc(OCc4ccccn4)cc3)ncnc2cc1OCCN1CC2CN(C)CC2C1 (centres unmarked) [compound 81] | 200 to 300 | 100 to 200 |  | 100 to 200 | 200 to 300 | 100 to 200 |  | 100 to 200 | ≤ 50 | > 1000 | > 1000
14 | C=CC(=O)Nc1cc2c(Nc3ccc(OCc4cnccn4)c(Cl)c3)ncnc2cc1OCCCN1CCOCC1 [compound 169] | > 1000 | 30 to 50 |  | 10 to 20 | > 1000 | 30 to 50 |  | 10 to 20 |  | 30 to 50 | 30 to 50
15 | CC#CC(=O)Nc1cc2c(Nc3ccc(OCc4cnccn4)c(Cl)c3)ncnc2cc1OCCCN1CCOCC1 [compound 170, N-(4-((3-chloro-4-(pyrazin-2-ylmethoxy)phenyl)amino)-7-(3-morpholinopropoxy)quinazolin-6-yl)but-2-ynamide] | 200 to 300 | 30 to 50 |  | 5 to 10 | 200 to 300 | 30 to 50 |  | 5 to 10 |  | 10 to 20 | 10 to 20
16 | C=CC(=O)Nc1cc2c(Nc3ccc(OCc4cccnn4)c(Cl)c3)ncnc2cc1OCCN1CCOCC1 [compound 171] | > 1000 | 50 to 100 |  | 50 to 100 | > 1000 | 50 to 100 |  | 50 to 100 |  | 300 to 500 | 300 to 500
17 | C=CC(=O)Nc1cc2c(Nc3ccc(OCc4cccnn4)c(Cl)c3)ncnc2cc1OCCN1CCN(C)CC1 [compound 172] | 500 to 1000 | 100 to 200 |  | 50 to 100 | 500 to 1000 | 100 to 200 |  | 50 to 100 |  | 300 to 500 | 300 to 500
18 | C=CC(=O)Nc1cc2c(Nc3ccc(OCc4cccnn4)c(Cl)c3)ncnc2cc1OCCN1CC2CCC(C1)O2 [compound 173] | > 1000 | 50 to 100 |  | 30 to 50 | > 1000 | 50 to 100 |  | 30 to 50 |  | 200 to 300 | 200 to 300
19 | C=CC(=O)Nc1cc2c(Nc3ccc(OCc4cccnn4)c(Cl)c3)ncnc2cc1OCCN1CC(OC)C1 [compound 174] | > 1000 | 50 to 100 |  | 50 to 100 | > 1000 | 50 to 100 |  | 50 to 100 |  | 300 to 500 | 300 to 500
20 | C=CC(=O)Nc1cc2c(Nc3ccc(OCc4cnccn4)c(Cl)c3)ncnc2cc1OCCN1CC2CCC(C1)O2 [compound 175] | > 1000 | 30 to 50 |  | 20 to 30 | > 1000 | 30 to 50 |  | 20 to 30 |  | 100 to 200 | 100 to 200
21 | C=CC(=O)Nc1cc2c(Nc3ccc(OCc4cnccn4)c(Cl)c3)ncnc2cc1OCCN1CCOCC1 [compound 176] | > 1000 | 30 to 50 |  | 20 to 30 | > 1000 | 30 to 50 |  | 20 to 30 |  | 100 to 200 | 100 to 200
22 | C=CC(=O)Nc1cc2c(Nc3ccc(OCc4cccnn4)c(Cl)c3)ncnc2cc1OCCCN1CC(OC)C1 [compound 177] | 500 to 1000 | 30 to 50 |  | 10 to 20 | 500 to 1000 | 30 to 50 |  | 10 to 20 |  | 50 to 100 | 50 to 100
23 | C=CC(=O)Nc1cc2c(Nc3ccc(OCc4cnccn4)c(Cl)c3)ncnc2cc1OCCN1CC(OC)C1 [compound 178] | > 1000 | 30 to 50 |  | 30 to 50 | > 1000 | 30 to 50 |  | 30 to 50 |  | 100 to 200 | 100 to 200
24 | C=CC(=O)Nc1cc2c(Nc3ccc(OCc4cnccn4)c(Cl)c3)ncnc2cc1OCCCN1CC(OC)C1 [compound 179] | 500 to 1000 | 30 to 50 |  | 10 to 20 | 500 to 1000 | 30 to 50 |  | 10 to 20 |  | 30 to 50 | 30 to 50
25 | C=CC(=O)Nc1cc2c(Nc3ccc(OCc4cnccn4)c(Cl)c3)ncnc2cc1OCCN1CCN(C)CC1 [compound 180] | 500 to 1000 | 30 to 50 |  | 20 to 30 | 500 to 1000 | 30 to 50 |  | 20 to 30 |  | 100 to 200 | 100 to 200
